Source: patent US10597390B2, “Indoles for use in influenza virus infection” (Janssen Sciences Ireland UC, priority 2014, dated 2020)
Structures can show the parent of a compound that is named as a salt.

What was measured:
[1] = tested on: influenza virus A/Taiwan/1/86 (H1N1); assay: organism not typed; type: cell-based; settings: CPE in MDCK cells, three days post-virus exposure, ATPlite
in vitro = settings: dog, TOX MDCK CC50

| Compound | melting point [°C] | IC50 ([1]; MDCK, 72 h) [nM] | CC50 at 3 days (in vitro) [nM] | IC50 [1] [nM] |
| --- | --- | --- | --- | --- |
| Nc1n[nH]c(C(=O)N[C@@H]2CCC[C@H](Nc3nc(-c4c[nH]c5c(F)cc(F)cc45)ncc3F)C2)n1 | > 300 |  |  |  |
| O=C(N[C@@H]1CCC[C@H](Nc2nc(-c3c[nH]c4c(F)cc(F)cc34)ncc2F)C1)c1nnn[nH]1 | 270.2 |  |  |  |
| Cc1cc(F)c2[nH]cc(-c3ncc(F)c(N[C@H]4C5CCC(CC5)[C@@H]4C(=O)O)n3)c2c1 (mixture of isomers) (as salt: TFA) [Compound 164] | > 250 |  |  |  |
| Cc1cc(F)c2[nH]cc(-c3ncc(F)c(N[C@@H]4CCC[C@@H](NC(=O)N5CCCC5)C4)n3)c2c1 (racemic) [Compound 20] | 94 | 12 | 15100 |  |
| Cc1cc(F)c2[nH]cc(-c3ncc(F)c(N[C@@H]4CCC[C@H](NC(=O)c5ccccn5)C4)n3)c2c1 (racemic) [Compound 21] | 208 | 4 | 4800 |  |
| Cn1nc(CO)cc1C(=O)N[C@@H]1CCC[C@H](Nc2nc(-c3c[nH]c4c(F)cc(F)cc34)ncc2F)C1 (relative stereo) [Compound 262, N-((1R*,3S*)-3-((2-(5,7-difluoro-1H-indol-3-yl)-5-fluoropyrimidin-4-yl)-amino)cyclohexyl)-3-(hydroxymethyl)-1-methyl-1H-pyrazole-5-carboxamide] |  | 46 | > 25000 |  |
| O=C(N[C@H]1CCC[C@@H](Nc2nc(-c3c[nH]c4c(F)cc(F)cc34)ncc2F)C1)N1CCCC1 (single isomer, unassigned) [Compound 9, N-((1R*,3S*)-3-((2-(5,7-difluoro-1H-indol-3-yl)-5-fluoropyrimidin-4-yl)-amino)cyclohexyl)pyrrolidine-1-carboxamide] |  | 3 | > 25000 |  |
| CC(C)(C)[C@H](CC(=O)O)Nc1nc(-c2c[nH]c3c(F)cc(F)cc23)c(C(F)(F)F)cc1F (single isomer, unassigned) [Compound 17, (S*)-3-((6-(5,7-difluoro-1H-indol-3-yl)-3-fluoro-5-(trifluoromethyl)pyridin-2-yl)amino)-4,4-dimethylpentanoic acid] |  | 37 | 6200 |  |
| CC(C)(C)[C@@H](CC(=O)O)Nc1nc(-c2c[nH]c3c(F)cc(F)cc23)c(C(F)(F)F)cc1F (single isomer, unassigned) [Compound 18, (R*)-3-((6-(5,7-difluoro-1H-indol-3-yl)-3-fluoro-5-(trifluoromethyl)pyridin-2-yl)amino)-4,4-dimethylpentanoic acid] |  | > 25000 | 210 |  |
| CC(C)(C)C(Cc1nnn[nH]1)Nc1nc(-c2c[nH]c3c(F)cc(F)cc23)ncc1F (centres unmarked) [Compound 19, 2-(5,7-difluoro-1H-indol-3-yl)-N-(3,3-dimethyl-1-(1H-tetrazol-5-yl)butan-2-yl)-5-fluoropyrimidin-4-amine] |  | 160 | 3700 |  |
| Cc1cc(F)c2[nH]cc(-c3nc(NC(CC(=O)O)C(C)(C)c4ccn(C)n4)c(F)cc3C#N)c2c1 (centres unmarked) [Compound 25, 3-((5-cyano-3-fluoro-6-(7-fluoro-5-methyl-1H-indol-3-yl)pyridin-2-yl)amino)-4-methyl-4-(1-methyl-1H-pyrazol-3-yl)pentanoic acid] |  | 41 | 900 |  |
| Cn1cnc(C(=O)N[C@@H]2CCC[C@H](Nc3nc(-c4c[nH]c5c(F)cc(Cl)cc45)ncc3F)C2)c1 [Compound 26] |  | 3 | 7900 |  |
| O=C(O)[C@H]1C2CCC(CC2)[C@@H]1Nc1nc(-c2c[nH]c3c(F)cc(Cl)cc23)ncc1F [Compound 30] |  | 3 | 200 |  |
| CC(C)(C)C(CC(=O)O)Nc1nc(-c2c[nH]c3c(F)cc(Cl)cc23)ncc1F (centres unmarked) [Compound 39] |  | 11 | 860 |  |
| CC(C)(C)[C@H](CC(=O)O)Nc1nc(-c2c[nH]c3c(F)cc(Cl)cc23)ncc1F [Compound 40] |  | 5 | 400 |  |
| Cc1[nH]nnc1C(=O)N[C@@H]1CCC[C@H](Nc2nc(-c3c[nH]c4c(F)cc(Cl)cc34)ncc2F)C1 [Compound 78] |  | 2 | 5700 |  |
| CN1CCC[C@H]1C(=O)N[C@H]1CCC[C@@H](Nc2nc(-c3c[nH]c4c(F)cc(F)cc34)ncc2F)C1 [Compound 82] |  | 270 | 12900 |  |
| Cn1nc(N)cc1C(=O)N[C@@H]1CCC[C@H](Nc2nc(-c3c[nH]c4c(F)cc(F)cc34)ncc2F)C1 [Compound 85] |  | 2 | > 25000 |  |
| Cc1[nH]nc(C(=O)N[C@@H]2CCC[C@H](Nc3nc(-c4c[nH]c5c(F)cc(F)cc45)ncc3F)C2)c1N [Compound 86] |  | 2 | 3100 |  |
| COCc1cc(C(=O)N[C@@H]2CCC[C@H](Nc3nc(-c4c[nH]c5c(F)cc(F)cc45)ncc3F)C2)no1 [Compound 87] |  | 40 | 2400 |  |
| O=C(N[C@@H]1CCC[C@H](Nc2nc(-c3c[nH]c4c(F)cc(F)cc34)ncc2F)C1)c1cn(CCO)cn1 [Compound 88] |  | 7 | 11500 |  |
| C=Cn1cnc(C(=O)N[C@@H]2CCC[C@H](Nc3nc(-c4c[nH]c5c(F)cc(F)cc45)ncc3F)C2)c1 [Compound 89] |  | 4 | 7300 |  |
| CCn1ccnc1C(=O)N[C@@H]1CCC[C@H](Nc2nc(-c3c[nH]c4c(F)cc(F)cc34)ncc2F)C1 [Compound 125] |  | 4 | 10200 |  |

| Compound | melting point [°C] | IC50 ([1]; MDCK, 72 h) [nM] | CC50 at 3 days (in vitro) [nM] | IC50 [1] [nM] |
| --- | --- | --- | --- | --- |
| O=C(O)c1cccc(C(=O)N[C@@H]2CCC[C@H](Nc3nc(-c4c[nH]c5c(F)cc(F)cc45)ncc3F)C2)n1 [Compound 157] |  | 330 | > 25000 |  |
| O=C(N[C@@H]1CCC[C@H](Nc2nc(-c3c[nH]c4c(F)cc(F)cc34)ncc2F)C1)c1cc(=O)[nH][nH]1 [Compound 158] |  | 15 | 13000 |  |
| Cn1[nH]c(=O)cc1C(=O)N[C@@H]1CCC[C@H](Nc2nc(-c3c[nH]c4c(F)cc(F)cc34)ncc2F)C1 [Compound 160] |  | 0.6 | > 25000 |  |
| N#Cc1cc(F)c(N[C@@H]2CCC[C@H](NC(=O)N3CCCC3)C2)nc1-c1c[nH]c2c(F)cc(F)cc12 [Compound 162] |  |  | > 23000 | 0.5 |
| Cc1cc(F)c2[nH]cc(-c3ncc(F)c(N[C@@H]4C5CCC(CC5)[C@H]4C(=O)O)n3)c2c1 [Compound 165] |  | > 25000 | 2300 |  |
| Cn1cnc(C(=O)N[C@H]2CCC[C@H](Nc3nc(-c4c[nH]c5c(F)cc(F)cc45)c(C#N)cc3F)C2)c1 [Compound 183] |  | 1100 | > 25000 |  |
| Cn1cnc(C(=O)N[C@@H]2CCC[C@H](Nc3nc(-c4c[nH]c5c(F)cc(F)cc45)c(C#N)cc3F)C2)c1 [Compound 184] |  | 3 | > 25000 |  |
| Cn1cnc(C(=O)N[C@@H]2CCC[C@H](Nc3nc(-c4c[nH]c5c(F)cc(Cl)cc45)c(C#N)cc3F)C2)c1 [Compound 185] |  | 4 | 10200 |  |
| CC(C)(C)[C@H](CC(=O)O)Nc1nc(-c2c[nH]c3c(F)cc(F)cc23)ncc1F [Compound 186] |  | 10 | 3800 |  |
| O=C(N[C@@H]1CCC[C@H](Nc2nc(-c3c[nH]c4c(F)cc(Cl)cc34)ncc2F)C1)c1ccccn1 [Compound 188] |  |  | 11000 | 5 |
| Cn1cnc(C(=O)NC2CC(Nc3nc(-c4c[nH]c5c(F)cc(F)cc45)ncc3F)CC(C)(C)C2)c1 (centres unmarked) [Compound 202, N-(5-((2-(5,7-difluoro-1H-indol-3-yl)-5-fluoropyrimidin-4-yl)amino)-3,3-dimethylcyclohexyl)-1-methyl-1H-imidazole-4-carboxamide] |  | 790 | 3900 |  |
| O=C(N[C@@H]1CCC[C@H](Nc2nc(-c3c[nH]c4c(F)cc(F)cc34)ncc2F)C1)c1ccc(O)nn1 [Compound 203] |  | 2 | > 25000 |  |
| Cc1cc(C(=O)N[C@@H]2CCC[C@@H](Nc3nc(-c4c[nH]c5c(F)cc(F)cc45)c(C#N)cc3F)C2)no1 [Compound 204] |  | 10 | 6800 |  |
| N#Cc1cc(F)c(N[C@H]2CCC[C@@H](NC(=O)[C@@H](O)c3ccccc3)C2)nc1-c1c[nH]c2c(F)cc(F)cc12 [Compound 213] |  | 390 | 3400 |  |
| CC(C)(C)C(CC(=O)O)Nc1nc(-c2c[nH]c3c(F)cc(F)cc23)c(C#N)cc1F (centres unmarked) [Compound 219] |  | 5 | 210 |  |
| CC(C)(c1cccs1)C(CC(=O)O)Nc1nc(-c2c[nH]c3c(F)cc(F)cc23)ncc1F (centres unmarked) [Compound 230] |  | 41 | 4000 |  |
| CC1(C(CC(=O)O)Nc2nc(-c3c[nH]c4c(F)cc(F)cc34)ncc2F)CCCC1 (centres unmarked) [Compound 249] |  | 11 | 1200 |  |
| CC[C@@]1(C(=O)O)CCCC[C@H]1Nc1nc(-c2c[nH]c3c(F)cc(F)cc23)ncc1F [Compound 253] |  | 120 | 15200 |  |
| O=C(O)[C@@H]1CCCC[C@@H]1Nc1nc(-c2c[nH]c3c(F)cc(F)cc23)ncc1F [Compound 254] |  | 320 | 14700 |  |
| CCOC(=O)NCc1cc(F)c(NC(CC(=O)O)C(C)(C)C)nc1-c1c[nH]c2c(F)cc(F)cc12 (centres unmarked) [Compound 256] |  | 290 | 13100 |  |
| CC(C)(C)[C@@H](CO)Nc1nc(-c2c[nH]c3c(F)cc(F)cc23)c(C#N)cc1F [Compound 257, (S)-2-(5,7-difluoro-1H-indol-3-yl)-5-fluoro-6-((1-hydroxy-3,3-dimethyl-butan-2-yl)amino)nicotinonitrile] |  | 130 | 7000 |  |
| O=C(NC1COCC(Nc2nc(-c3c[nH]c4c(F)cc(F)cc34)ncc2F)C1)c1cnn[nH]1 (centres unmarked) [Compound 261, N-(5-((2-(5,7-difluoro-1H-indol-3-yl)-5-fluoropyrimidin-4-yl)amino)-tetrahydro-2H-pyran-3-yl)-1H-1,2,3-triazole-5-carboxamide] |  | 1000 | > 25000 |  |
